The source of these data is paper PMC5468247, “Development of a selective agonist for relaxin family peptide receptor 3” (Scientific Reports, 2017).

Experiment [1] addresses T1, human RXFP3 (Homo sapiens, UniProt Q9NSD7).
T1 construct: expressed in transfected cells; host or cells: HEK293T
T1 sequence (Q9NSD7 1-469): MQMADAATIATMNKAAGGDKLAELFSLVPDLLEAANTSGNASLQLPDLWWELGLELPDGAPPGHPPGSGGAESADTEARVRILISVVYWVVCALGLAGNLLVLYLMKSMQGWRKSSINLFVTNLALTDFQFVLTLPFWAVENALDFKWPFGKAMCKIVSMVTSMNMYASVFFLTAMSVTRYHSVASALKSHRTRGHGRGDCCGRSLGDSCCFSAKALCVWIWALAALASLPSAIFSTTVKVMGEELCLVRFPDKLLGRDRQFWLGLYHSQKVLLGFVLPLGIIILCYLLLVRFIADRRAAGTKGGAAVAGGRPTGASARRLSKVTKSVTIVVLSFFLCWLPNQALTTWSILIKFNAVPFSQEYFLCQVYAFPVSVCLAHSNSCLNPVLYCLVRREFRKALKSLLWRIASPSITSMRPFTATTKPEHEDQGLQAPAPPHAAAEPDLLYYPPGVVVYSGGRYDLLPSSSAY
Nature of the experiment: Receptor activation assay, CRE-controlled NanoLuc reporter. Conditions: CRE-NanoLuc reporter, human RXFP3; for fold lower activation potency towards RXFP3 compared with R3/I5: relative to R3/I5; for activation potency towards RXFP3, in words: compared with R3/I5. It counts as cell-based. The source says: (§1) HEK293T cells transiently cotransfected with a CRE-controlled NanoLuc reporter vector and the expression construct of human RXFP3 or human RXFP4 were used for activation assays. The measured bioluminescence data are expressed as means ± SE (n = 3) and fitted to sigmoidal or linear curves using SigmaPlot 10.0.
(§2) Briefly, HEK293T cells were transiently cotransfected with the NanoLuc reporter vector pNL1.2/CRE and the expression construct of human RXFP3 or human RXFP4. On the next day, transfected cells were trypsinised, seeded into 96-well plates, and continuously cultured for 24–36 h to ~90% confluence. To initiate activation assays, medium was removed and activation solution (serum-free DMEM medium plus 1% bovine serum albumin) containing 1.0 μM of forskolin and various concentrations of peptide was added (100 μl/well). After continuous culturing at 37 °C for 4 h, activation solution was removed and cells were lysed with lysis solution (100 μl/well, Promega). Cell lysates were then transferred to a white opaque 96-well plate (50 μl/well), mixed with freshly diluted substrate (50 μl/well), and bioluminescence was immediately measured on a SpectraMax M5 plate reader (Molecular Devices) in luminescence mode. The measured data were expressed as means ± SE (n = 3) and fitted to sigmoidal or linear curves using SigmaPlot 10.0 software.

In experiment [2] the target is T2, human RXFP4 (Homo sapiens, UniProt Q8TDU9).
T2 construct: expressed in transfected cells; host or cells: HEK293T
T2 sequence (Q8TDU9 whole entry): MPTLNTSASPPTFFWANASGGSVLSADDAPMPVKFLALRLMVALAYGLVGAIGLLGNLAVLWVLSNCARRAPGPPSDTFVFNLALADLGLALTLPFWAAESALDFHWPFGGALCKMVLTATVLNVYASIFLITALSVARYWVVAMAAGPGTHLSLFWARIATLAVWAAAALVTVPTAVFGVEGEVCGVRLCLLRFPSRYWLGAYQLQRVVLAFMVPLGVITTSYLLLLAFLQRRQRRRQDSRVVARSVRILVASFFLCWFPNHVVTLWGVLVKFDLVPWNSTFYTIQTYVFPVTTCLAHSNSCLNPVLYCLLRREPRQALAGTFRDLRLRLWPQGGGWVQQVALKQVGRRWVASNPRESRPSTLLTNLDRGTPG
The description is as above. It counts as cell-based. Conditions: relative to R3/I5.
Description: as §1, §2

The target in experiment [3] is T1, human RXFP3. Nature of the experiment: Receptor binding assay, NanoLuc-conjugated R3/I5 tracer competition. Conditions: for binding potency towards RXFP3, in words: compared with R3/I5. The method, then: (§3) Specific binding data are expressed as means ± SE (n = 3) and fitted to sigmoidal curves using SigmaPlot 10.0 software.
(§4) Briefly, HEK293T cells were transiently transfected with an expression construct of human RXFP3 or human RXFP4. On the next day, transfected cells were trypsinised, seeded into 96-well plates, and continuously cultured for 24–36 h to ~100% confluence. […] After incubation at 21 °C for 2 h, binding solution was removed and cells were washed twice with ice-cold phosphate-buffered saline (200 μl/well for each wash). Thereafter, cells were lysed by lysis solution (100 μl/well, Promega, Madison, WI, USA) and cell lysates were transferred to a white opaque 96-well plate (50 μl/well). After mixing with freshly diluted substrate (50 μl/well), bioluminescence was immediately measured on a SpectraMax M5 plate reader (Molecular Devices, Sunnyvale, CA, USA) in luminescence mode. […] The calculated specific binding data were expressed as means ± standard error (SE; n = 3) and fitted to sigmoidal curves using SigmaPlot 10.0 software.

Experiment [4] has as its target T2, human RXFP4. The description is as above. Conditions: for binding potency towards RXFP4, in words: compared with R3/I5. The procedure: as §3, §4

Turning to `CC[C@H](C)[C@@H]1NC(=O)[C@H](Cc2ccccc2)NC(=O)[C@H](CCC(=O)O)NC(=O)[C@H](CCCNC(=N)N)NC(=O)CNC(=O)[C@@H](NC(=O)[C@H](CC(C)C)NC(=O)[C@H](CCCNC(=N)N)NC(=O)[C@@H](NC(=O)CNC(=O)[C@H](Cc2ccc(O)cc2)NC(=O)[C@@H]2CCCN2C(=O)[C@H](C)NC(=O)[C@H](C)NC(=O)[C@H](CCCNC(=N)N)NC(=O)[C@@H]2CCC(=O)N2)C(C)C)CSSC[C@@H]2NC(=O)[C@@H](NC(=O)[C@H](CC(C)C)NC(=O)[C@@H](NC(=O)[C@H](CCC(N)=O)NC(=O)[C@H](CC(C)C)NC(=O)[C@H](CC(=O)O)NC(=O)[C@H](CCC(N)=O)NC(=O)[C@H](CCCNC(=N)N)NC(=O)[C@H](CO)NC(=O)[C@H](CCCNC(=N)N)NC(=O)[C@H](CCCNC(=N)N)NC(=O)[C@H](CO)NC(=O)[C@@H](N)CCCNC(=N)N)[C@@H](C)O)CSSC[C@H](NC(=O)CNC(=O)[C@H](CC(=O)O)NC(=O)[C@H]([C@@H](C)O)NC2=O)C(=O)N[C@@H](CO)C(=O)N[C@@H](CCSC)C(=O)N[C@@H]([C@@H](C)O)C(=O)N[C@@H](CC(=O)O)C(=O)N[C@@H](CC(C)C)C(=O)N[C@@H](CO)C(=O)N[C@@H](C)C(=O)N[C@@H](CC(C)C)C(=O)N[C@H](C(=O)O)CSSC[C@@H](C(=O)NCC(=O)N[C@@H](CO)C(=O)N[C@@H](CCCNC(=N)N)C(=O)N[C@@H](Cc2c[nH]c3ccccc23)C(=O)O)NC(=O)[C@H]([C@@H](C)O)NC(=O)[C@H](Cc2ccccc2)NC(=O)[C@H]([C@@H](C)CC)NC(=O)[C@H](C(C)C)NC(=O)[C@H](C)NC(=O)[C@H](CCCNC(=N)N)NC1=O` [[∆B23]R3/I5], the “fold lower activation potency towards RXFP3 compared with R3/I5” value on human RXFP3 [1] is ~ 300 fold. In addition, at human RXFP4 [2], the “fold lower activation potency towards RXFP4 compared with R3/I5” value is ~ 300 fold. Also, the “binding potency towards RXFP3, in words” value at human RXFP3 [3] was “retained considerable binding potency”. For the same compound, on human RXFP4 [4], the “binding potency towards RXFP4, in words” value is listed as “retained considerable binding potency”.
Consider `CC[C@H](C)[C@@H]1NC(=O)[C@H](Cc2ccccc2)NC(=O)[C@H](CCC(=O)O)NC(=O)[C@H](CCCNC(=N)N)NC(=O)CNC(=O)[C@@H](NC(=O)[C@H](CC(C)C)NC(=O)[C@H](CCCNC(=N)N)NC(=O)[C@@H](NC(=O)CNC(=O)[C@H](Cc2ccc(O)cc2)NC(=O)[C@@H]2CCCN2C(=O)[C@H](C)NC(=O)[C@H](C)NC(=O)[C@H](CCCNC(=N)N)NC(=O)[C@@H]2CCC(=O)N2)C(C)C)CSSC[C@@H]2NC(=O)[C@@H](NC(=O)[C@H](CC(C)C)NC(=O)[C@@H](NC(=O)[C@H](CCC(N)=O)NC(=O)[C@H](CC(C)C)NC(=O)[C@H](CC(=O)O)NC(=O)[C@H](CCC(N)=O)NC(=O)[C@H](CCCNC(=N)N)NC(=O)[C@H](CO)NC(=O)[C@H](CCCNC(=N)N)NC(=O)[C@H](CCCNC(=N)N)NC(=O)[C@H](CO)NC(=O)[C@@H](N)CCCNC(=N)N)[C@@H](C)O)CSSC[C@H](NC(=O)CNC(=O)[C@H](CC(=O)O)NC(=O)[C@H]([C@@H](C)O)NC2=O)C(=O)N[C@@H](CO)C(=O)N[C@@H](CCSC)C(=O)N[C@@H]([C@@H](C)O)C(=O)N[C@@H](CC(=O)O)C(=O)N[C@@H](CC(C)C)C(=O)N[C@@H](CO)C(=O)N[C@@H](C)C(=O)N[C@@H](CC(C)C)C(=O)N[C@H](C(=O)O)CSSC[C@@H](C(=O)N[C@@H](C)C(=O)NCC(=O)N[C@@H](CO)C(=O)N[C@@H](CCCNC(=N)N)C(=O)N[C@@H](Cc2c[nH]c3ccccc23)C(=O)O)NC(=O)[C@H]([C@@H](C)O)NC(=O)[C@H](Cc2ccccc2)NC(=O)[C@H]([C@@H](C)CC)NC(=O)[C@H](C(C)C)NC(=O)[C@H](C)NC(=O)[C@H](CCCNC(=N)N)NC1=O` [[G(B23)A]R3/I5], for which the “activation potency towards RXFP3, in words” value at human RXFP3 [1] was “lost all activation potency”. Moreover, the “fold lower activation potency towards RXFP4 compared with R3/I5” value on human RXFP4 [2] is ~ 100 fold. Besides, the “binding potency towards RXFP3, in words” value on human RXFP3 [3] is given as “retained considerable binding potency”. For the same compound, the “binding potency towards RXFP4, in words” value on human RXFP4 [4] is “retained high binding potency”.
Consider `CC[C@H](C)[C@@H]1NC(=O)[C@H](Cc2ccccc2)NC(=O)[C@H](CCC(=O)O)NC(=O)[C@H](CCCNC(=N)N)NC(=O)CNC(=O)[C@@H](NC(=O)[C@H](CC(C)C)NC(=O)[C@H](CCCNC(=N)N)NC(=O)[C@@H](NC(=O)CNC(=O)[C@H](Cc2ccc(O)cc2)NC(=O)[C@@H]2CCCN2C(=O)[C@H](C)NC(=O)[C@H](C)NC(=O)[C@H](CCCNC(=N)N)NC(=O)[C@@H]2CCC(=O)N2)C(C)C)CSSC[C@@H]2NC(=O)[C@@H](NC(=O)[C@H](CC(C)C)NC(=O)[C@@H](NC(=O)[C@H](CCC(N)=O)NC(=O)[C@H](CC(C)C)NC(=O)[C@H](CC(=O)O)NC(=O)[C@H](CCC(N)=O)NC(=O)[C@H](CCCNC(=N)N)NC(=O)[C@H](CO)NC(=O)[C@H](CCCNC(=N)N)NC(=O)[C@H](CCCNC(=N)N)NC(=O)[C@H](CO)NC(=O)[C@@H](N)CCCNC(=N)N)[C@@H](C)O)CSSC[C@H](NC(=O)CNC(=O)[C@H](CC(=O)O)NC(=O)[C@H]([C@@H](C)O)NC2=O)C(=O)N[C@@H](CO)C(=O)N[C@@H](CCSC)C(=O)N[C@@H]([C@@H](C)O)C(=O)N[C@@H](CC(=O)O)C(=O)N[C@@H](CC(C)C)C(=O)N[C@@H](CO)C(=O)N[C@@H](C)C(=O)N[C@@H](CC(C)C)C(=O)N[C@H](C(=O)O)CSSC[C@@H](C(=O)NCC(=O)NCC(=O)NCC(=O)N[C@@H](CO)C(=O)N[C@@H](CCCNC(=N)N)C(=O)N[C@@H](Cc2c[nH]c3ccccc23)C(=O)O)NC(=O)[C@H]([C@@H](C)O)NC(=O)[C@H](Cc2ccccc2)NC(=O)[C@H]([C@@H](C)CC)NC(=O)[C@H](C(C)C)NC(=O)[C@H](C)NC(=O)[C@H](CCCNC(=N)N)NC1=O` [[+G(B23-24)]R3/I5], for which the “fold lower activation potency towards RXFP3 compared with R3/I5” value at human RXFP3 [1] is ~ 100 fold. In addition, at human RXFP4 [2], the “fold lower activation potency towards RXFP4 compared with R3/I5” value was ~ 100 fold. The “binding potency towards RXFP3, in words” value at human RXFP3 [3] is on record as “comparable with R3/I5”. For the same compound, the “binding potency towards RXFP4, in words” value at human RXFP4 [4] is reported as “comparable with R3/I5”.
In the case of `CC[C@H](C)[C@@H]1NC(=O)[C@H](Cc2ccccc2)NC(=O)[C@H](CCC(=O)O)NC(=O)[C@H](CCCNC(=N)N)NC(=O)CNC(=O)[C@@H](NC(=O)[C@H](CC(C)C)NC(=O)[C@H](CCCNC(=N)N)NC(=O)[C@@H](NC(=O)CNC(=O)[C@H](Cc2ccc(O)cc2)NC(=O)[C@@H]2CCCN2C(=O)[C@H](C)NC(=O)[C@H](C)NC(=O)[C@H](CCCNC(=N)N)NC(=O)[C@@H]2CCC(=O)N2)C(C)C)CSSC[C@@H]2NC(=O)[C@@H](NC(=O)[C@H](CC(C)C)NC(=O)[C@@H](NC(=O)[C@H](CCC(N)=O)NC(=O)[C@H](CC(C)C)NC(=O)[C@H](CC(=O)O)NC(=O)[C@H](CCC(N)=O)NC(=O)[C@H](CCCNC(=N)N)NC(=O)[C@H](CO)NC(=O)[C@H](CCCNC(=N)N)NC(=O)[C@H](CCCNC(=N)N)NC(=O)[C@H](CO)NC(=O)[C@@H](N)CCCNC(=N)N)[C@@H](C)O)CSSC[C@H](NC(=O)CNC(=O)[C@H](CC(=O)O)NC(=O)[C@H]([C@@H](C)O)NC2=O)C(=O)N[C@@H](CO)C(=O)N[C@@H](CCSC)C(=O)N[C@@H]([C@@H](C)O)C(=O)N[C@@H](CC(=O)O)C(=O)N[C@@H](CC(C)C)C(=O)N[C@@H](CO)C(=O)N[C@@H](C)C(=O)N[C@@H](CC(C)C)C(=O)N[C@H](C(=O)O)CSSC[C@@H](C(=O)N[C@@H](CO)C(=O)N[C@@H](CCCNC(=N)N)C(=O)N[C@@H](Cc2c[nH]c3ccccc23)C(=O)O)NC(=O)[C@H]([C@@H](C)O)NC(=O)[C@H](Cc2ccccc2)NC(=O)[C@H]([C@@H](C)CC)NC(=O)[C@H](C(C)C)NC(=O)[C@H](C)NC(=O)[C@H](CCCNC(=N)N)NC1=O` [[∆B23-24]R3/I5], the “activation potency towards RXFP3, in words” value at human RXFP3 [1] is listed as “lost all activation potency”. For the same compound, at human RXFP4 [2], the “fold lower activation potency towards RXFP4 compared with R3/I5” value was ~ 1000 fold. For the same compound, at human RXFP3 [3] (relative to R3/I5), the “fold lower binding potency for RXFP3 compared with R3/I5” value is ~ 3 fold. Besides, the “fold lower binding potency towards RXFP4 compared with R3/I5” value at human RXFP4 [4] (relative to R3/I5) was ~ 10 fold.
